These results are taken from patent publication US20190161451A1, “HERBICIDAL PYRIMIDINE COMPOUNDS” (BASF SE, priority 2016, published 2019).

The subject of experiment [1] is APESV. Put plainly: greenhouse experiment, pre-emergence treatment. The format is in vivo, Apera spica-venti. To be noted: pre-emergence method, scale from 0 to 100. From the text: (§1) The culture containers used were plastic flowerpots containing loamy sand with approximately 3.0% of humus as the substrate. The seeds of the test plants were sown separately for each species.
(§2) For the pre-emergence treatment, the active ingredients, which had been suspended or emulsified in water, were applied directly after sowing by means of finely distributing nozzles.
(§3) The containers were irrigated gently to promote germination and growth and subsequently covered with transparent plastic hoods until the plants had rooted. This cover caused uniform germination of the test plants, unless this had been impaired by the active ingredients.
(§4) Depending on the species, the plants were kept at 10-25° C. or 20-35° C., respectively.
(§5) The test period extended over 2 to 4 weeks. During this time, the plants were tended, and their response to the individual treatments was evaluated.
(§6) Evaluation was carried out using a scale from 0 to 100. 100 means no emergence of the plants, or complete destruction of at least the aerial moieties, and 0 means no damage, or normal course of growth. A good herbicidal activity is given at values of at least 70 and a very good herbicidal activity is given at values of at least 85.
(§7) The plants used in the greenhouse experiments were of the following species: […]

Experiment [2] deals with AMARE. Put plainly: greenhouse experiment, post-emergence treatment. Format: in vivo, Amaranthus retroflexus. The following applies: post-emergence method, scale from 0 to 100.
Description: as §1
(§8) For the post-emergence treatment, the test plants were first grown to a height of 3 to 15 cm, depending on the plant habit, and only then treated with the active ingredients which had been suspended or emulsified in water. For this purpose, the test plants were either sown directly and grown in the same containers, or they were first grown separately as seedlings and transplanted into the test containers a few days prior to treatment.
as §4, §5, §6, §7

The subject of experiment [3] is ECHCG. Put plainly: greenhouse experiment, pre-emergence treatment. Format: in vivo, Echinocloa crus-galli. To be noted: pre-emergence method, scale from 0 to 100.
Description: as §1, §2, §3, §4, §5, §6, §7

The subject of experiment [4] is ALOMY. Put plainly: greenhouse experiment, post-emergence treatment. The following applies: post-emergence method, scale from 0 to 100. The format is in vivo, Alopecurus myosuroides.
Description: as §1, §8, §4, §5, §6, §7

For experiment [5], the system named is ECHCG. Put plainly: greenhouse experiment, post-emergence treatment. The format is in vivo, Echinocloa crus-galli. To be noted: post-emergence method, scale from 0 to 100.
Description: as §1, §8, §4, §5, §6, §7

In experiment [6] the test system is ABUTH. The experiment in a line: greenhouse experiment, post-emergence treatment. Format: in vivo, Abutilon theophrasti. The following applies: post-emergence method, application rate 1000 g/ha, scale from 0 to 100.
Description: as §1, §8, §4, §5, §6, §7

Experiment [7] concerns SETVI. Put plainly: greenhouse experiment, post-emergence treatment. The format is in vivo, Setaria viridis. The following applies: post-emergence method, scale from 0 to 100.
Description: as §1, §8, §4, §5, §6, §7

For the compound `O=C(O)c1nc(C2CC2)ncc1-c1cccc2c1OC(F)(F)O2` [example 2, 2-Cyclopropyl-5-(2,2-difluoro-1,3-benzodioxol-4-yl)pyrimidine-4-carboxylic Acid], the “herbicidal activity against APESV” value in experiment [1] (application rate 1000 g/ha) is given as “very good (a very good herbicidal activity is given at values of at least 85)”. Also, the “herbicidal activity against AMARE” value in experiment [2] (application rate 1000 g/ha) was “very good (a very good herbicidal activity is given at values of at least 85)”. The “herbicidal activity against ECHCG” value in experiment [3] (application rate 1000 g/ha) is “very good (a very good herbicidal activity is given at values of at least 85)”. In addition, the “herbicidal activity against ALOMY” value in experiment [4] (application rate 1000 g/ha) is reported as “very good (a very good herbicidal activity is given at values of at least 85)”.

`COC(=O)c1nc(C2CC2)ncc1-c1cc2c(cc1Br)OCO2` [example 24]: in experiment [5] (application rate 1000 g/ha), the “herbicidal activity against ECHCG” value is “very good (a very good herbicidal activity is given at values of at least 85)”. The “herbicidal activity against ALOMY” value in experiment [4] (application rate 1000 g/ha) is “very good (a very good herbicidal activity is given at values of at least 85)”.

As for `O=C(O)c1nc(C2CC2)ncc1-c1cc2c(cc1I)OCO2` [example 29], the “herbicidal activity against AMARE” value in experiment [2] (application rate 1000 g/ha) was “very good (a very good herbicidal activity is given at values of at least 85)”.

`O=C(O)c1nc(C2CC2)ncc1-c1cccc2c1OCC2` [example 5]: the “herbicidal activity against ECHCG” value in experiment [3] (application rate 1000 g/ha) and in experiment [5] (application rate 1000 g/ha) was “good (A good herbicidal activity is given at values of at least 70)” each time.

For `O=C(O)c1nc(C2CC2)ncc1-c1cc2c(cc1Br)OCO2` [example 25], the “herbicidal activity against APESV” value in experiment [1] (application rate 1000 g/ha) is “very good (a very good herbicidal activity is given at values of at least 85)”. Besides, the “herbicidal activity against ABUTH” value in experiment [6] is reported as “good (A good herbicidal activity is given at values of at least 70)”. Moreover, the “herbicidal activity against ECHCG” value is “very good (a very good herbicidal activity is given at values of at least 85)” in experiment [3] (application rate 1000 g/ha) and “good (A good herbicidal activity is given at values of at least 70)” in experiment [5] (application rate 1000 g/ha). The “herbicidal activity against ALOMY” value in experiment [4] (application rate 1000 g/ha) is reported as “good (A good herbicidal activity is given at values of at least 70)”.

Consider `COC(=O)c1nc(C2CC2)ncc1-c1cccc2c1OCCO2` [example 30], for which, in experiment [2] (application rate 1000 g/ha), the “herbicidal activity against AMARE” value is given as “very good (a very good herbicidal activity is given at values of at least 85)”.

`O=C(O)c1nc(C2CC2)ncc1-c1cccc2c1OCCO2` [example 31]: the “herbicidal activity against APESV” value in experiment [1] (application rate 1000 g/ha) was “very good (a very good herbicidal activity is given at values of at least 85)”. Besides, the “herbicidal activity against AMARE” value in experiment [2] (application rate 1000 g/ha) was “very good (a very good herbicidal activity is given at values of at least 85)”. The “herbicidal activity against ECHCG” value in experiment [3] (application rate 1000 g/ha) and in experiment [5] (application rate 1000 g/ha) was “very good (a very good herbicidal activity is given at values of at least 85)” each time.

With `COc1c2c(cc(Cl)c1-c1cnc(C3CC3)nc1C(=O)O)OCO2` [example 36], the “herbicidal activity against APESV” value in experiment [1] (application rate 1000 g/ha) was “very good (a very good herbicidal activity is given at values of at least 85)”. In experiment [5] (application rate 1000 g/ha), the “herbicidal activity against ECHCG” value is “very good (a very good herbicidal activity is given at values of at least 85)”. Further, the “herbicidal activity against ALOMY” value in experiment [4] (application rate 1000 g/ha) was “very good (a very good herbicidal activity is given at values of at least 85)”.

For `COC(=O)c1nc(C2CC2)ncc1-c1cc2c(cc1I)OCO2` [example 28], the “herbicidal activity against ECHCG” value in experiment [3] (application rate 1000 g/ha) is on record as “very good (a very good herbicidal activity is given at values of at least 85)”; in experiment [5] (application rate 1000 g/ha), “good (A good herbicidal activity is given at values of at least 70)”. Besides, in experiment [4] (application rate 1000 g/ha), the “herbicidal activity against ALOMY” value is recorded as “good (A good herbicidal activity is given at values of at least 70)”.

For the compound `O=C(O)c1nc(C2CC2)ncc1-c1csc2ccccc12` [example 13], in experiment [2] (application rate 2000 g/ha), the “herbicidal activity against AMARE” value was “very good (a very good herbicidal activity is given at values of at least 85)”. For the same compound, the “herbicidal activity against ECHCG” value is “very good (a very good herbicidal activity is given at values of at least 85)” in experiment [3] (application rate 2000 g/ha) and “good (A good herbicidal activity is given at values of at least 70)” in experiment [5] (application rate 2000 g/ha). For the same compound, the “herbicidal activity against ALOMY” value in experiment [4] (application rate 2000 g/ha) is on record as “good (A good herbicidal activity is given at values of at least 70)”.

With `O=C(O)c1nc(C2CC2)ncc1-c1coc2ccccc12` [example 16], the “herbicidal activity against APESV” value in experiment [1] (application rate 2000 g/ha) is recorded as “very good (a very good herbicidal activity is given at values of at least 85)”. Moreover, the “herbicidal activity against ECHCG” value in experiment [3] (application rate 2000 g/ha) is recorded as “very good (a very good herbicidal activity is given at values of at least 85)”; in experiment [5] (application rate 2000 g/ha), “good (A good herbicidal activity is given at values of at least 70)”.

Turning to `COC(=O)c1nc(C2CC2)ncc1-c1csc2ccccc12` [example 12, Methyl 5-(benzothiophen-3-yl)-2-cyclopropyl-pyrimidine-4-carboxylate], the “herbicidal activity against ECHCG” value in experiment [3] (application rate 2000 g/ha) is “very good (a very good herbicidal activity is given at values of at least 85)”.

As for `COC(=O)c1nc(C2CC2)ncc1-c1cc2c(cc1Cl)OCO2` [example 9], in experiment [5] (application rate 1000 g/ha), the “herbicidal activity against ECHCG” value is given as “very good (a very good herbicidal activity is given at values of at least 85)”.

As for `COC(=O)c1nc(C2CC2)ncc1-c1c(Cl)sc2ccccc12` [example 17, Methyl 5-(2-chlorobenzothiophen-3-yl)-2-cyclopropyl-pyrimidine-4-carboxylate], the “herbicidal activity against SETVI” value in experiment [7] (application rate 2000 g/ha) is “very good (a very good herbicidal activity is given at values of at least 85)”.

In the case of `COC(=O)c1nc(C2CC2)ncc1-c1c(Cl)sc2ccccc12` [example 4], the “herbicidal activity against ECHCG” value in experiment [3] (application rate 1000 g/ha) was “good (A good herbicidal activity is given at values of at least 70)”. Further, the “herbicidal activity against ALOMY” value in experiment [4] (application rate 1000 g/ha) was “very good (a very good herbicidal activity is given at values of at least 85)”.

`COC(=O)c1nc(C2CC2)ncc1-c1c(Cl)cc2c(c1OC)OCO2` [example 35]: the “herbicidal activity against ABUTH” value in experiment [6] is reported as “very good (a very good herbicidal activity is given at values of at least 85)”.

Turning to `O=C(O)c1nc(C2CC2)ncc1-c1cc2c(cc1Cl)OCO2` [example 10], the “herbicidal activity against APESV” value in experiment [1] (application rate 1000 g/ha) is “very good (a very good herbicidal activity is given at values of at least 85)”. In addition, the figures for the “herbicidal activity against ECHCG” value in experiment [3] (application rate 1000 g/ha) and in experiment [5] (application rate 1000 g/ha) were “very good (a very good herbicidal activity is given at values of at least 85)” and “good (A good herbicidal activity is given at values of at least 70)”, respectively. Also, the “herbicidal activity against ALOMY” value in experiment [4] (application rate 1000 g/ha) was “very good (a very good herbicidal activity is given at values of at least 85)”.

As to `COC(=O)c1nc(C2CC2)ncc1-c1coc2ccccc12` [example 15], in experiment [3] (application rate 1000 g/ha), the “herbicidal activity against ECHCG” value was “very good (a very good herbicidal activity is given at values of at least 85)”. Also, the “herbicidal activity against SETVI” value in experiment [7] (application rate 1000 g/ha) was “very good (a very good herbicidal activity is given at values of at least 85)”.

Take `O=C(O)c1nc(C2CC2)ncc1-c1c(Cl)cc2c(c1F)OCO2` [example 33]: the “herbicidal activity against APESV” value in experiment [1] (application rate 1000 g/ha) is listed as “very good (a very good herbicidal activity is given at values of at least 85)”. Moreover, the “herbicidal activity against ECHCG” value in experiment [3] (application rate 1000 g/ha) and in experiment [5] (application rate 1000 g/ha) was “very good (a very good herbicidal activity is given at values of at least 85)” in each case. Besides, the “herbicidal activity against ALOMY” value in experiment [4] (application rate 1000 g/ha) is given as “good (A good herbicidal activity is given at values of at least 70)”.

Consider `COC(=O)c1nc(C2CC2)ncc1-c1c(Cl)oc2ccccc12` [example 19], for which the “herbicidal activity against ALOMY” value in experiment [4] (application rate 2000 g/ha) is recorded as “good (A good herbicidal activity is given at values of at least 70)”.

Turning to `COC(=O)c1nc(C2CC2)ncc1-c1c(Cl)ccc2c1OCO2` [example 11], the “herbicidal activity against AMARE” value in experiment [2] (application rate 1000 g/ha) is given as “good (A good herbicidal activity is given at values of at least 70)”. The “herbicidal activity against ECHCG” value in experiment [3] (application rate 1000 g/ha) is recorded as “very good (a very good herbicidal activity is given at values of at least 85)”. Also, the “herbicidal activity against ALOMY” value in experiment [4] (application rate 1000 g/ha) was “very good (a very good herbicidal activity is given at values of at least 85)”.

Consider `COC(=O)c1nc(C2CC2)ncc1-c1c(Cl)cc2c(c1F)OCO2` [example 32], for which the “herbicidal activity against ECHCG” value in experiment [3] (application rate 1000 g/ha) is on record as “very good (a very good herbicidal activity is given at values of at least 85)”; in experiment [5] (application rate 1000 g/ha), “good (A good herbicidal activity is given at values of at least 70)”. For the same compound, the “herbicidal activity against ALOMY” value in experiment [4] (application rate 1000 g/ha) was “good (A good herbicidal activity is given at values of at least 70)”.

Turning to `O=C(O)c1nc(C2CC2)ncc1-c1c(Cl)oc2ccccc12` [example 20], the “herbicidal activity against APESV” value in experiment [1] (application rate 2000 g/ha) is recorded as “very good (a very good herbicidal activity is given at values of at least 85)”.
